{
  "source": "patent US7977308B2",
  "about": "“Lys-Thr dipeptides and their use” (Sederma, priority 2005, dated 2011)",
  "format_in_all_cases": "cell-based",
  "key": {"[1]": {"tested_on": "Normal Human Dermal Fibroblasts (NHDF)", "experiment": "Quantification of Collagen I synthesis using human dermal fibroblasts (direct ELISA)", "details": "3 days of incubation", "procedure": "(§1) Products were tested from 0.5 to 4 ppm depending of their solubility or toxicity. Pal-KTTKS was tested from 2 to 8 ppm.\n(§2) Pal KTTKS (Lys-Thr-Thr-Lys-Ser), Pal KT (Lys-Thr), Pal KS (Lys-Ser) were prepared in Sederma Peptide Synthesis Laboratory. TGF-betal: 10^E-6%, was the positive control for collagen I and Fibronectin studies.\n(§3) For this study, di-peptides were linked to the Palmitoic acid and were compared to Pal-KTTKS.\n(§4) Normal Human Dermal Fibroblasts (NHDF) were cultivated in culture plates in an appropriate culture medium (i.e. complete DMEM with fetal calf serum). After cell anchorage, cell layers (n=5 replicates) were rinsed with saline buffer and contact with molecules to be tested were performed in a complete DMEM without fetal calf serum. This medium contained ascorbate (sodium salt) and beta-aminopropionitrile, monofumarate. Two independent experimentations were performed for each di-peptide.\n(§5) After 3 days of incubation, supernatants were collected and frozen. Survival was estimated on cell layer using the fluorescent probe Hoescht 33258. Collagen I was estimated using an original direct ELISA method. Fibronectin was estimated using ELISA commercial kit.\n(§6) Criteria: TGF-b1 should be promoter of Collagen I and Fibronectin synthesis. Statistical analysis were performed on Collagen I data (n=5/assay) or Fibronectin data (n=5/assay). Results obtained with molecules were compared to negative control. All data were ng/10^E6 cells. A Student t test for non paired values was used; significativity was obtained if p<0.05 or p<0.01.\n(§7) The percents in the tables above were calculated from ng/10E6 data and compared to the negative control."}, "[2]": {"tested_on": "Normal Human Dermal Fibroblasts (NHDF)", "experiment": "Survival estimated on cell layer using fluorescent probe Hoescht 33258", "details": "for cell proliferation / number of cells: after 3 days of culture", "procedure": "as §4, §5"}, "[3]": {"tested_on": "Normal Human Dermal Fibroblasts (NHDF)", "experiment": "Quantification of Fibronectin synthesis using human dermal fibroblasts (ELISA commercial kit)", "details": "3 days of incubation", "procedure": "as §1, §2, §3, §4, §5, §6, §7"}},
  "note": "Where no end group is shown, it is not given here. The star is where a group is joined. Palmitoyl = CCCCCCCCCCCCCCCC(=O)*",
  "data": [
    {"compound": "Pal-Lys-Thr-OH [Pal KT]", "values": [
      {"measurement": "COLLAGEN I Mean, percent of negative control", "setting": "[1]; 1 ppm", "result": "+21%"}
    ]},
    {"compound": "CCCCCCCCCCCCCCCC(=O)N[C@@H](CCCCN)C(=O)N[C@@H](CO)C(=O)O", "note": "[Pal KS]", "values": [
      {"measurement": "toxicity on the cell layer", "setting": "[2]; 4 ppm", "result": "seemed to induce a light toxicity"}
    ]},
    {"compound": "Pal KTTKS: Palmitoyl Lys-Thr-Thr-Lys-Ser, considered as a benchmark (Palmitoyl-KTTKS)", "values": [
      {"measurement": "COLLAGEN I Mean, percent of negative control", "setting": "[1]; 2 ppm", "result": "+5%"},
      {"measurement": "COLLAGEN I Mean, percent of negative control", "setting": "[1]; 4 ppm", "result": "+49%"},
      {"measurement": "COLLAGEN I Mean, percent of negative control", "setting": "[1]; 4 ppm, listed as Pal-KTTKS", "result": "+49%"},
      {"measurement": "COLLAGEN I Mean, percent of negative control", "setting": "[1]; 6 ppm", "result": "+111%"},
      {"measurement": "COLLAGEN I Mean, percent of negative control", "setting": "[1]; 6 ppm, listed as Pal-KTTKS", "result": "+111%"},
      {"measurement": "COLLAGEN I Mean, percent of negative control", "setting": "[1]; 8 ppm", "result": "+144%"},
      {"measurement": "COLLAGEN I Mean, percent of negative control", "setting": "[1]; 8 ppm, listed as Pal-KTTKS", "result": "+144%"},
      {"measurement": "FIBRONECTIN Mean, percent of negative control", "setting": "[3]; 2 ppm", "result": "+20%"},
      {"measurement": "FIBRONECTIN Mean, percent of negative control", "setting": "[3]; 2 ppm, listed as Pal KTRKS", "result": "probably active"},
      {"measurement": "cell proliferation / number of cells", "setting": "[2]", "result": "unchanged"}
    ]},
    {"compound": "TGF-beta: positive control for collagen I and Fibronectin studies", "values": [
      {"measurement": "COLLAGEN I Mean, percent of negative control", "setting": "[1]; 10 ppb", "result": "+95%"},
      {"measurement": "COLLAGEN I Mean, percent of negative control", "setting": "[1]; 10 ppb, listed as TGF-b1", "result": 95, "unit": "%"},
      {"measurement": "FIBRONECTIN Mean, percent of negative control", "setting": "[3]; 10 ppb", "result": "+69%"},
      {"measurement": "FIBRONECTIN Mean, percent of negative control", "setting": "[3]; 10 ppb, listed as TGF-b1", "result": 69, "unit": "%"},
      {"measurement": "cell proliferation / number of cells", "setting": "[2]", "result": "significant increase of cell proliferation"}
    ]}
  ]
}
